This note sets out measurements from EP1149907A1, “EDG8 receptor, its preparation and use” (Aventis Pharma Deutschland GmbH, priority 2000, dated 2001).

Holding throughout (experiment): FLIPR assay of intracellular Ca2+ mobilization in transiently transfected CHO cells
For orientation: Calcium assays in cells follow changes in intracellular calcium, usually with a dye or a luminescent sensor.

In one experiment the test system is EDG6. It is filed as cell-based, human. As to conditions: CHO cells transfected with EDG6, no cotransfected G-protein α subunit. As to the method: (§1) Fig.2 depicts measurement of the intracellular Ca2+ concentration, mediated by S1P via the different S1P-receptors EDG1, 3, 5, 6 and the putative S1P-receptor EDG8, cotransfected in CHO cells with empty vector DNA as a control or various G-protein α subunits. Intracellular Ca2+ concentrations were recorded as real time measurements using the Fluorescence plate imaging reader (FLIPR, Molecular Devices). […] As already known for a large number of Gq-coupled receptors, coexpression of Gaq augments the EDG1 and 5-mediated Ca2+-release as compared with the Ca2+ signal induced by stimulation of endogeneous Gaq. […] The reason for this discrepancy could be the cellular background, as Yamazaki Y. et al. (2000) reported that the Ca2+ signal can be completely abolished in the presence of pertussis toxin (PTX), indicating the involvement of Gi-type G-proteins. In this case the Ca2+ signal would be elicited by bg, released from activated Gaibg heterotrimers. The Gαi-induced Ca2+ signals are known to be much smaller in intensity as compared with the Ca2+ signals induced by bona-fide Gq-linked receptors (Kostenis et al., 1997a; Kostenis et al., 1997b). It may be that detection of such Ca2+ concentrations is beyond the sensitivity of the FLIPR system. […]

Another experiment concerns EDG3. It counts as cell-based, human. To be noted: CHO cells transfected with EDG3, no cotransfected G-protein α subunit (Fig.2). Here is the method: as §1
(§2) Fig.2: Mobilization of intracellular Ca^2+ by S1P mediated by the EDG1, 3, 5 and 8 receptor in CHO cells, cotransfected with empty vector DNA as a control or the indicated G-protein α subunits. Agonist-mediated changes of intracellular Ca^2+ were measured with the FLIPR using the Ca^2+-sensitive dye FLUO4. Fluorescence of transfected cells loaded with FLUO4 was recorded before and after addition of S1P, applied in the indicated concentrations. Data are expressed as means of quadruplicate determinations in a single experiment. […]

Another experiment deals with EDG5. It counts as cell-based, human. As to conditions: CHO cells transfected with EDG5, no cotransfected G-protein α subunit (Fig.2). As to the method: as §1, §2
For a further experiment, the system named is EDG1. It is filed as cell-based, human. As to conditions: CHO cells transfected with EDG1, no cotransfected G-protein α subunit (Fig.2). Here is the method:
as §1, §2

The next experiment concerns human EDG8, SEQ ID NO. 2. It counts as cell-based. As to conditions: for increase in intracellular Ca2+ ([Ca2+]i): CHO cells transiently transfected with EDG8 and G-protein α subunits G16 and Gqi5, lipids applied at 10, 100 and 1000 nM (Fig.3). As to the method:
Fig.2 depicts measurement of the intracellular Ca2+ concentration, mediated by S1P via the different S1P-receptors EDG1, 3, 5, 6 and the putative S1P-receptor EDG8, cotransfected in CHO cells with empty vector DNA as a control or various G-protein α subunits. Intracellular Ca2+ concentrations were recorded as real time measurements using the Fluorescence plate imaging reader (FLIPR, Molecular Devices). […] As already known for a large number of Gq-coupled receptors, coexpression of Gaq augments the EDG1 and 5-mediated Ca2+-release as compared with the Ca2+ signal induced by stimulation of endogeneous Gaq. […] The reason for this discrepancy could be the cellular background, as Yamazaki Y. et al. (2000) reported that the Ca2+ signal can be completely abolished in the presence of pertussis toxin (PTX), indicating the involvement of Gi-type G-proteins. In this case the Ca2+ signal would be elicited by bg, released from activated Gaibg heterotrimers. The Gαi-induced Ca2+ signals are known to be much smaller in intensity as compared with the Ca2+ signals induced by bona-fide Gq-linked receptors (Kostenis et al., 1997a; Kostenis et al., 1997b). It may be that detection of such Ca2+ concentrations is beyond the sensitivity of the FLIPR system. […] To check, whether the EDG8 receptor also reacts to related lysophospholipid mediators, we examined the abilities of lysophosphatidic acid (LPA), dihydrosphingosin 1-phosphate (DHS1P), sphingosylphosphorylcholine (SPC) and lysophosphatidylcholine (LPC) to increase intracellular Ca2+ in CHO cells transiently transfected with the EDG8 receptor and the G-protein α subunits G16 and Gqi5 (Fig.3).
Fig.2: Mobilization of intracellular Ca^2+ by S1P mediated by the EDG1, 3, 5 and 8 receptor in CHO cells, cotransfected with empty vector DNA as a control or the indicated G-protein α subunits. Agonist-mediated changes of intracellular Ca^2+ were measured with the FLIPR using the Ca^2+-sensitive dye FLUO4. Fluorescence of transfected cells loaded with FLUO4 was recorded before and after addition of S1P, applied in the indicated concentrations. Data are expressed as means of quadruplicate determinations in a single experiment. An additional experiment gave similar results.
Fig.3: Effects of S1P, LPA and related lysophospholipid mediators on EDG8-mediated increase in intracellular Ca^2+ measured with the FLIPR as described in the legend of […]. The different lipids were applied in concentrations of 10, 100 and 1000 nM, respectively. Data are means of quadruplicate determinations of a representative experiment. Two additional experiments gave similar results.
CHO-K1 cells were grown in basal ISCOVE medium supplemented with 10% fetal bovine serum at 37°C in a humidified 5% CO2 incubator. For transfections, 2 x 10^5 cells were seeded into 35-mm dishes. About 24 hr later cells were transiently transfected at 50-80% confluency with the indicated receptor and G-protein constructs (1µg of plasmid DNA each) using the Lipofectamine transfection reagent and the supplied protocol (GIBCO). 18-24 hr after transfection cells were seeded into 96well plates at a density of 50.000 cells per well and cultured for 18-24 additional hr until used in the functional FLIPR assays. The cDNA for Gα16 was cloned from TF1 cells by RT-PCR and ligated into the pCDNA1.1 mammalian expression vector (Invitrogen). Murine wild type Gαq was cloned from cells by RT-PCR and inserted into the BamHI-NsiI-sites of pCDNA1.1. To create the C-terminally modified Gαqi5 subunit, in which the last five aa of wt Gαq were replaced with the correspoding Gαi sequence, a 175-bp Bg/II-NsiI fragment was replaced, in a two piece ligation, with a synthetic DNA fragment, containing the desired codon changes. The correctness of all PCR-derived sequences was verified by sequencing in both directions.
Twenty-four hours after transfection, cells were splitted into 96-well, black-wall microplates (Corning) at a density of 50,000 cells per well. […]

On to `CCCCCCCCCCCCC/C=C/[C@@H](O)[C@@H](N)COP(=O)(O)O` [S1P, sphingosin 1-phosphate], for which the “mobilization of intracellular Ca2+” value in the experiment on EDG6 is recorded as “failed to detect a significant Ca2+ increase above basal levels”; in the experiment with EDG3, “elicited intracellular Ca2+ signals”; with EDG5, “elicited intracellular Ca2+ signals”; with EDG1 it was “elicited intracellular Ca2+ signals”; with human EDG8, SEQ ID NO. 2 (CHO cells cotransfected with EDG8 and Gα16 or Gαqi5 (Fig.2)), “gained the ability to mobilize Ca2+”; in the experiment with human EDG8, SEQ ID NO. 2 (CHO cells transfected with EDG8, no cotransfected G-protein α subunit (Fig.2)) it was “did not release intracellular Ca2+”. Besides, the “increase in intracellular Ca2+ ([Ca2+]i)” value with human EDG8, SEQ ID NO. 2 is reported as “most potent activator of EDG8”.
Consider `CCCCCCCCCCCCC/C=C/[C@@H](O)[C@@H](N)COP(=O)([O-])OCC[N+](C)(C)C` [SPC, sphingosylphosphorylcholine], for which the “increase in intracellular Ca2+ ([Ca2+]i)” value with human EDG8, SEQ ID NO. 2 is recorded as “failed to generate any significant response in concentrations up to 1 µM”.
For the compound `CCCCCCCC/C=C\CCCCCCCC(=O)OCC(O)COP(=O)(O)O` (centres unmarked) [LPA, lysophosphatidic acid], the “increase in intracellular Ca2+ ([Ca2+]i)” value in the experiment on human EDG8, SEQ ID NO. 2 is “evoked [Ca2+]i increases in concentrations of 100 and 1000 nM”.
Same read-out and setting: under lysophosphatidylcholine [LPC] stands “failed to generate any significant response in concentrations up to 1 µM”; under `CCCCCCCCCCCCCCC[C@@H](O)[C@@H](N)COP(=O)(O)O` [DHS1P, dihydrosphingosin 1-phosphate], “evoked [Ca2+]i increases in concentrations of 100 and 1000 nM”.
